From PubChem BioAssay (NCI) come the findings set out here.

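Protocol summary: plate cells (96-well), add compound at 5 concentrations, incubate 48 h, interpolate endpoints linearly. GI50 is the concentration that inhibits growth by half. TGI: concentration producing complete growth inhibition.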

What all share (test): DTP human tumour cell line panel, 48 h
The subject of assay [1] is OVCAR-4 ovarian.
Assay [2] relates to SK-MEL-2 melanoma.
For assay [3], the system named is NCI-H23 lung.
Assay [4] deals with SF-539 CNS.
Assay [5] has as its system DU-145 prostate.
The test system of assay [6] is SN12C renal.
Assay [7] deals with NCI-H522 lung.
In assay [8] the test system is A549 NSCLC.
The subject of assay [9] is RPMI-8226 leukemia.
The test system of assay [10] is SW-620 colon.

One may read the TGI as the concentration giving total growth inhibition. Low readings indicate more potent growth arrest, high ones less potent growth arrest. As to `COc1ccc(N=C(SSC(=Nc2ccc(OC)cc2)c2ccc([N+](=O)[O-])o2)c2ccc([N+](=O)[O-])o2)cc1`, the TGI was 2.92 µM in assay [1]; 4.73 µM in assay [2]; 3.2 µM in [3]; greater than 21.9 µM in assay [4]; 2.92 µM in assay [5]; 4.87 µM in assay [6]. Besides, the TGI in assay [7] is 0.953 µM; in assay [8], greater than 100 µM; in assay [9] it was greater than 100 µM.
`CCOC(=O)C(NC(=O)c1cccc(Cl)c1)(N1CCN(c2cc3c(cc2F)c(=O)c(C(=O)O)cn3CC)CC1)C(F)(F)F` (stereo not given): the TGI in [1] worked out at 53 µM; in assay [2] it was 31.1 µM; in [3], 42 µM; in assay [4], 30.2 µM; in assay [10], 29.4 µM; in [5] it was 88.3 µM. The TGI was determined as 70.9 µM in assay [6], 16.4 µM in [7], 64.2 µM in assay [8] and 62.8 µM in assay [9].
For `O=C(Cn1c(-c2ccccc2)cc2ccccc21)N1CCOCC1`, the total growth inhibition concentration (TGI) in [1], in assay [2], in assay [3], in assay [4], in assay [10] and in assay [5] was greater than 100 µM in each case. The TGI in assay [6], in assay [7], in [8] and in assay [9] was greater than 100 µM throughout.
Turning to `Nc1nc2c(ccc3ccccc32)[nH]1`, the TGI in assay [1], in [2], in [3], in assay [4], in [10] and in assay [5] was greater than 10 µM each time. The TGI in assay [6], in [7], in assay [8] and in assay [9] was greater than 10 µM each time.
With `N/N=C(\N)SCc1ccc(N=C=S)cc1`, the TGI in assay [1], in assay [2], in [3], in [4], in assay [10] and in [5] was greater than 100 µM throughout. In addition, the TGI in [6], in assay [7], in assay [8] and in [9] was greater than 100 µM in each case.
As for `COC(=O)c1ccccc1NCc1cc(O)ccc1O`, the total growth inhibition concentration (TGI) in assay [1] was 34.9 µM; in assay [2], 58.3 µM; in [3], greater than 68.5 µM; in assay [4], 34.9 µM; in assay [10] it was 52 µM; in [5] it was greater than 100 µM. Further, the TGI in [6] was 36.9 µM; in assay [7], 6.75 µM; in assay [8], greater than 83.1 µM; in assay [9], 96.9 µM.
As for `CCCSC1=N/C(=C\c2ccco2)C(=O)N1`, the TGI in assay [1], in assay [2], in assay [3], in [4], in assay [10] and in assay [5] was greater than 100 µM in each case. Moreover, the concentration for total growth inhibition (TGI) in assay [6], in assay [7], in assay [8] and in assay [9] was greater than 100 µM in each case.
On to `O=C(c1ccccc1)n1c2ccc(Br)cc2c2nc3ccccc3nc21`, for which the TGI in assay [1], in assay [2], in assay [3], in [4], in assay [10] and in assay [5] was greater than 100 µM throughout. Moreover, the TGI in [6], in assay [7] and in assay [9] was greater than 100 µM throughout.
In the case of `CCCCC(C)(C/C=C/[C@@H]1[C@@H](C(O)CCCCCC(=O)OC)C(=O)C[C@H]1O[Si](C)(C)C(C)(C)C)O[Si](C)(C)C` (stereo not given in full), the TGI in assay [1], in assay [2], in assay [3], in assay [4], in assay [10] and in [5] was greater than 100 µM each time. In addition, the TGI in assay [6], in assay [7], in assay [8] and in assay [9] was greater than 100 µM in each case.
Turning to `CC(C)S1=C2C(=O)CC(C)(C)CC2=Nc2ccccc21` (stereo not given), the total growth inhibition concentration (TGI) in [1], in assay [2], in assay [3], in [10], in [5] and in assay [6] was greater than 100 µM throughout. The TGI in [7], in [8] and in assay [9] was greater than 100 µM in each case.
The GI50 is the concentration that inhibits growth by half. For the compound `Cc1cc(N(CCCl)CCCl)ccc1/C=N\NC(=O)c1cccnc1`, the GI50 in [2] is 27.3 µM; in [3], 18.4 µM; in assay [4] it was 13.9 µM; in assay [10], 30.3 µM; in assay [5] it was 15.1 µM; in assay [6] it was 22.4 µM. Also, the GI50 is 15.2 µM in [7], 21 µM in [8] and 20.1 µM in assay [9]. The TGI in assay [2] is 59 µM; in assay [3] it was greater than 100 µM; in assay [4], greater than 100 µM; in assay [10], greater than 100 µM; in [5], 99 µM; in assay [6], greater than 100 µM. Besides, the TGI is 32.3 µM in assay [7], greater than 100 µM in assay [8] and 59 µM in assay [9].
As to `O=C1Cc2c(-c3ccccc3)cc(-c3ccc(Cl)cc3)nc2-c2ccccc2N1`, the TGI in assay [1] is 3.82 µM; in assay [2], 49.4 µM; in assay [3] it was 17.8 µM; in [4] it was 19.8 µM; in assay [10] it was greater than 47.6 µM; in assay [5] it was greater than 90.2 µM. Also, the TGI in assay [6] was 16.9 µM; in [7], 12.8 µM; in assay [8], 35.3 µM; in assay [9], greater than 100 µM.
`Cc1nnc(N)s/c1=N/O`: the TGI in assay [1], in [2], in [3], in assay [4], in assay [10] and in assay [5] was greater than 100 µM each time. The TGI in assay [6], in assay [7], in assay [8] and in assay [9] was greater than 100 µM in each case.
